Data on one molecule can be found in US20220401483A1, “COMBINATION OF A T CELL THERAPY AND (S)-3-[4-(4-MORPHOLIN-4-YLMETHYL-BENZYLOXY)-L-OXO-L,3-DIHYDRO-ISOINDOL-2-YL]-PIPERIDINE-2,6-DIONE” (Juno Therapeutics, Inc., priority 2019, published 2022).

The test system of one data set is Ikaros. The data set can be described thus: Intracellular Ikaros expression in stimulated anti-CD19 CAR-expressing T cells (flow cytometry MFI). Format: cell-based, human. How it is done: T cell compositions containing anti-CD19 CAR-expressing T cells were generated from leukapheresis samples from three healthy human adult donors by a process including immunoaffinity-based selection of T cells (including CD4+ and CD8+ cells) from the samples, resulting in two compositions, enriched for CD8+ and CD4+ cells, respectively. The cells were incubated in the presence of (S)-3-[4-(4-morpholin-4-ylmethyl-benzyloxy)-1-oxo-1,3-dihydro-isoindol-2-yl]-piperidine-2,6-dione (Compound A) or 3-(5-amino-2-methyl-4-oxo-4H-quinazolin-3-yl)-piperidine-2,6-dione (Compound B), and expression of the transcription factors Ikaros and Aiolos was assessed. Cells of the enriched CD4+ and CD8+ compositions were separately activated with anti-CD3/anti-CD28 beads and subjected to lentiviral transduction with a vector encoding an anti-CD19 CAR. The anti-CD19 CAR contained an anti-CD19 scFv derived from a murine antibody (variable region derived from FMC63), an immunoglobulin-derived spacer, a transmembrane domain derived from CD28, a costimulatory region derived from 4-1BB, and a CD3-zeta intracellular signaling domain. The expression construct in the viral vector further contained sequences encoding a truncated receptor, which served as a surrogate marker for CAR expression, which was separated from the CAR sequence by a T2A ribosome skip sequence. Transduced populations then were separately incubated in the presence of stimulating reagents for cell expansion. Expanded CD8+ and CD4+ cells were formulated and cryopreserved separately and stored. The cryopreserved CD4+ and CD8+ anti-CD19 CAR-expressing cells from each donor were thawed, and combined at approximately a 1:1 CAR+CD4+:CD8+ ratio prior to use. Approximately 2.5×10^5 cells of the generated CAR+ T cell composition were stimulated overnight with 1 μg/ml of a CAR-specific anti-idiotypic antibody in the presence of 3-(5-amino-2-methyl-4-oxo-4H-quinazolin-3-yl)-piperidine-2,6-dione (Compound B) or (S)-3-[4-(4-morpholin-4-ylmethyl-benzyloxy)-1-oxo-1,3-dihydro-isoindol-2-yl]-piperidine-2,6-dione (Compound A) at concentrations ranging from 10 to 10000 nM or a vehicle control overnight at 37° C., 5% C02. Following overnight incubation, anti-CD19 CAR-expressing T cells were stained with antibodies and analyzed by flow cytometry to assess intracellular levels of Ikaros and Aiolos in CD4+ CAR+ or CD8+ CAR+ cells, as measured by median fluorescence intensity (MFI). Median fluorescence intensity (MFI) values for Ikaros and Aiolos were normalized and calculated as a percentage relative to vehicle control. […] The EC50 for reducing Aiolos and Ikaros expression was calculated as determined from the concentration of the inhibitor that reduced Aiolos or Ikaros MFI to 50% of its maximal MFI in the absence of the inhibitor.
(In general: In flow cytometry, cells or beads pass a laser one at a time.)

The test system of the next data set is anti-CD19 CAR T cells. Kind of data set: Proliferation and cell cycle of acutely stimulated anti-CD19 CAR T cells. The format is cell-based, human. Here is the method: Cell cycle and proliferation of anti-CD19 CAR T cells was measured by labeling cells using the Click-iT™ EdU Cell Proliferation Kit after which the prepared cells were analyzed by flow cytometry for DNA content. Numbers of anti-CD19 CAR T cells were measured over time using an IncuCyte® Live-Cell Analysis System.
As shown, treatment with Compound A reduced the proliferation of anti-CD19 CAR T cells. To further assess the effects on reducing proliferation, cell cycle was measured by flow cytometry by analyzing DNA content. FIG. 7D depicts plots of the percentage of cells in G1 phase (mean±SEM from data pooled from 3 donors and 2 independent experiments).

The nature of a further data set: Cmax in healthy subjects. The conditions noted are these: human, in vivo, doses of 0.3 mg and 1.0 mg.
The subject of data set [1] is Granta-519 tumor spheroids. The data set can be described thus: Spheroid tumor growth assay after chronic stimulation with concurrent treatment. Format: cell-based, human. How it is done:
CAR T cells that had been stimulated for 6 days with anti-ID concurrently in the presence of Compound A (0.001 μM or 0.01 μM) were co-cultured with by incubation with Granta-519 tumor spheroids, and CAR T cell cytolytic function and cytokine function were assessed at various time points. For comparison, cytolytic activity was also assessed for cells that had been similarly chronically stimulated with anti-ID in the presence of 1 μM or 0.1 μM Compound B. Averaged measurement of tumor spheroid size at various times following co-culture with CAR-T cells was monitored.
Cytokines (IFNγ, IL-2 and TNFalpha) were measured from supernatant of the chronically stimulated CAR T cells above that had been co-cultured for 5 days with CD19 tumor spheroids. The log 2 fold change compared to control cells (chronically stimulated cells that had not been concurrently treated with Compound A immunomodulatory compound) is shown in FIG. 3F.

The test system of data set [2] is Granta-519 tumor spheroids. Kind of data set: Spheroid tumor growth assay, rescue treatment of chronically stimulated CAR T cells. The format is cell-based, human. Here is the method:
Anti-CD19 CAR-expressing T cells from three donors, produced as described in Example 1, were stimulated under conditions to induce chronic stimulation (to produce hypofunctional, exhausted T cells) and then were subsequently treated (rescue) with (S)-3-[4-(4-morpholin-4-ylmethyl-benzyloxy)-1-oxo-1,3-dihydro-isoindol-2-yl]-piperidine-2,6-dione (Compound A), or a vehicle control. Long-term, chronic stimulation was carried out by stimulation of CAR T cells with 30 μg/mL plate-bound anti-idiotypic (anti-ID) antibody for 6 days, substantially as described in Example 3 but in the absence of Compound A. After the chronic stimulation, the CAR-T cells were rechallenged with CD19-expressing target cells in the presence of Compound A, and cytolytic activity or cytokine production was assessed.
CAR T cells that had been stimulated for 6 days with anti-ID were co-cultured by incubation with Granta-519 tumor spheroids, in the presence or absence of Compound A (0.001 μM or 0.01 μM). Cells were assessed at various time points for cytolytic function and cytokine function. For comparison, cytolytic activity was also assessed for cells that had been similarly chronically stimulated with anti-ID, followed by co-culture in the presence of 1 μM or 0.1 μM Compound B. Averaged measurement of tumor spheroid size at Day 9 following co-culture with CAR-T cells was assessed. […] The improvement in cytolytic function was greater following rescue treatment with Compound A than Compound B. Cytokines (IFNγ, IL-2 and TNFalpha) were measured from supernatant of the chronically stimulated CAR T cells above that had been co-cultured for 5 days with CD19 tumor spheroids. The log 2 fold change compared to control cells (chronically stimulated cells that had not been treated with immunomodulatory compound) is shown in FIG. 4C.

Another data set concerns RL tumor spheroids. The data set can be described thus: RL tumor spheroid model with anti-CD19 CAR T cells. The format is cell-based, human. Particulars: Day 4; 1 μM Compound B, 0.01 μM or 0.1 μM Compound A. How it is done:
Cytolytic activity was also assessed in a spheroid model. About 5,000 RL cells were plated 48 hours prior to addition of 5,000 anti-CD19 CAR T cells (1:1 E:T ratio). Anti-CD19 CAR T cells were co-cultured with RL tumor spheroids, in the presence of Compound B (1 μM) or Compound A (0.001 μM, 0.01 μM or 0.1 μM)).

Where [3] appears, read: 5 days co-culture with spheroids.

SMILES strings stand for the structures.

Usually EC50 stands for the concentration at which the effect is half-maximal. One may read the Cmax as the highest concentration seen after dosing. For `O=C1CC[C@H](N2Cc3c(OCc4ccc(CN5CCOCC5)cc4)cccc3C2=O)C(=O)N1` [Compound A, (S)-3-[4-(4-morpholin-4-ylmethyl-benzyloxy)-1-oxo-1,3-dihydro-isoindol-2-yl]-piperidine-2,6-dione], the “intracellular Ikaros expression” value in the data set with Ikaros (10 to 10000 nM, overnight) is given as “concentration dependent decrease”. The EC50 with Ikaros (overnight incubation, 1 μg/ml anti-idiotypic antibody, average of donors (range, 95% confidence interval)) turned out to be 4 nM. Further, the “proliferation of anti-CD19 CAR T cells” value in the data set with anti-CD19 CAR T cells (1 nM, 10 nM or 100 nM) is “reduced”. Moreover, the “percentage of cells in the G1 phase” value in the data set on anti-CD19 CAR T cells (3 days treatment) is reported as “statistically significant increase”. This molecule also returned a peak concentration (Cmax) in “Cmax in healthy subjects” of 2.41 to 11.8 nM. For the same molecule, in data set [1], the “cytolytic function, average tumor volume after 9 days” value was “significantly increased cytolytic function”. Moreover, in data set [1] (0.001 μM or 0.01 μM), the “cytolytic function, Granta-519 spheroid growth” value was “improved cytolytic function”. Further, the “IFNγ in co-culture supernatant” value in data set [1] (setting [3]) and in data set [2] (setting [3]) was “statistically significant increase” throughout. The “improvement in cytolytic function compared with Compound B” value in data set [1] (Compound B 1 μM or 0.1 μM) and in data set [2] (Compound B 1 μM or 0.1 μM) was “greater” in each case. In data set [2] (0.001 μM or 0.01 μM, Day 9), the “CAR T cell cytolytic function, Granta-519 spheroid growth” value is recorded as “improved”. In the data set on RL tumor spheroids, the “sensitivity of RL tumor spheroids to compound” value is “sensitive”.
